In US20220160779A1, “COMPOSITION FOR PROMOTING CARTILAGE TISSUE REGENERATION” (National University Corporation Tokyo Medical and Dental …, priority 2019, published 2022):

Experiments:
[1] = tested on: Wistar rats; experiment: MIA-induced arthritis rat model, incapacitance test; format: in vivo; conditions: intra-articular at day 14 after MIA (400 ng/30 uL in PBS), vs control group; FIG. 9B
Protocol: Wistar rats (Charles River, Japan) aged 10 weeks and weighing 330 to 345 g were used for this study. The rats were divided into two groups (those to be injected with Activin A after injection of mono-iodoacetic acid (MIA), and those to be injected with vehicle after injection of MIA (control)), and subjected to the following experiments.
First, the rats were anesthetized by isoflurane inhalation, and 30 μL of physiological saline containing 1.0 mg MIA was injected into the left knee joint as described in Hoshino T. et al, BMC Musculoskelet Disord., 2018, 19(1): 291. Then, at day 14 after MIA injection, 30 μL of recombinant human Activin A (400 ng/30 μL in PBS) or PBS only as a vehicle was injected. Then, pain avoidance behavior (load asymmetry) between the left limb (MIA-injected side) and the right limb (MIA-uninjected side) was evaluated at day 0 (before injection) and days 1, 3, 7, 14, 17, 19, 21, 24, and 28 after injection.
Load asymmetry was detected by using an incapacitance tester (Linton Instrumentation, Norfolk, UK) with rats in its prismatic Plexiglas case, and the left and right hindlimbs placed on independent force plates. […]
Then, the change from the difference in the percentage of load before administration was then evaluated over time. […]

[2] = tested on: C57BL/6J mice; experiment: Medial meniscus anterior 1/2 resection model; format: in vivo, mouse
Description: Twenty male C57BL/6J mice (8 weeks old, weight: about 25 g) were used for this study (5 mice in each group. ORIENTAL YEAST Co., Ltd. Tokyo, Japan). After anesthesia by isoflurane inhalation, a straight incision was made in the left anterior knee, and the anterior central side of the joint capsule was cut. The patellar tendon was then dislocated laterally to expose the anterior corner of the medial meniscus (see Hiyama K. et al, J Orthop Res., 2017, 35(9), pp. 1958 to 1965). The anterior corner of the meniscus was cut and dislocated anteriorly using forceps. The medial meniscus was cut perpendicularly at the medial collateral ligament, and the anterior portion of the medial meniscus was resected in a microscopic operation using a surgical microscope. The skin was closed in layers with non-absorbable sutures. Note that the right knee was subjected to sham surgery. In addition, the mice were kept under a 12-hour light/dark cycle with free movement, free feeding, and drinking water.
Recombinant human Activin A (42 ng/6 μL in PBS) and/or rh PDGF-AA (174 ng/6 μL in PBS) was injected intra-articularly on postoperative day 7 (see Hoshino T. et al., BMC Musculoskelet Disord., 2018, 19(1): 291). […]
Tissue samples were fixed in 4% paraformaldehyde for 3 to 4 days and subjected to decalcification in 20% ethylenediaminetetraacetic acid (EDTA) solution for 21 days. Then, they were embedded in paraffin wax. The specimens were then cut to a 5 μm thickness in the sagittal plane and stained with safranin O/Fast Green or hematoxylin/eosin (H&E) to histologically evaluate meniscus regeneration.
A modified Pauli's score system was used to histologically quantify meniscus regeneration (see Hiyama K. et al, J Orthop Res. 2017, 35(9), pp. 1958 to 1965). Histological evaluation was performed by two investigators in a blind manner.
Type I and II collagen immunostaining was performed as described in Tsuji K. et al, Cell Transplant., 2017, 26(6), pp. 1089 to 1102. That is, sections were subjected to deparaffinization with xylene (Wako Pure Chemical Industries, Tokyo, Japan), rehydrated stepwise with alcohol, and saturated with phosphate buffered saline (PBS). For type II collagen staining, the samples were pretreated with 50 mM Tris-HCl buffer (Wako Pure Chemical Industries) containing 0.4 mg/ml Proteinase K (Dako, Agilent Technologies, Santa Clara, Calif., USA) for 10 min. For type I collagen staining, no digestion with Proteinase K was performed.
Next, the cells were treated with methanol containing 0.3% hydrogen peroxide for 30 minutes to suppress the activity of endogenous peroxidase. As primary antibodies, anti-type I collagen antibody (1:200 dilution; Abcam cat. #ab34712, Cambridge, UK) or anti-type II collagen antibody (1:1000 dilution; Abcam […], Cambridge, UK) were added to the sections and incubated at 4° C. overnight. Then, the sections were rinsed with 0.1% PBS-Triton X-100 (MP Biomedicals Inc., Solon, Ohio, USA) and incubated with secondary antibodies diluted 1:200 [Biotinylated goat-derived anti-rabbit immunoglobulin G (IgG), Vector Laboratories, Burlingame, Calif., USA]. Then, the sections were rinsed, the signals were visualized with Vectastain ABC Reagent (Vector Laboratories), and diaminobenzidine staining (DAB, Vector Laboratories) was applied. In addition, the sections were contrast stained with hematoxylin (Muto Pure Chemicals, Tokyo, Japan).

[3] = tested on: proteoglycans; conditions: cited from earlier work

Question: For “Activin A: homodimer of two inhibin βA chains; recombinant human protein purchased from R&D Systems”, which “load on MIA-injected hindlimb (pain avoidance behavior)” value [1] is on record?
Answer: The value was “significant improvement”.

Question: And the “regenerated meniscus tissue (histology)” value ([2]; 42 ng/knee intra-articular on day 7, 10 days after resection, FIG. 7A)?
Answer: The value was “more uniform regenerated meniscus tissue, was induced”.

Question: What about the “staining property of safranin O (proteoglycans)” value ([2]; 10 days after resection, vs control and PDGF groups, FIG. 7A) of the same substance?
Answer: Its value is “enhanced”.

Question: What about the “regenerated meniscus tissue (histology)” value ([2]; 21 days after resection (day 14 after administration), FIG. 7B) of the same substance?
Answer: The value was “uniform regeneration of cartilage-like tissue was observed”.

Question: And the “expression of type II collagen” value ([2]; 21 days after resection, FIG. 7B)?
Answer: The value was “Uniform expression”.

Question: And the “regenerated meniscus tissue (histology)” value ([2]; 56 days after resection (day 49 after administration), FIG. 7C)?
Answer: Its value is “formation of bone marrow-like tissue”.

Question: And the “regenerated meniscus tissue (histology)” value ([2]; 84 days after resection (day 77 after administration), FIG. 7D)?
Answer: Its value is “regenerated tissue image very close to that of a normal meniscus”.

Question: What about the “meniscus regeneration process, modified Pauli's score” value ([2]; day 10, 21, 56 and 84 after meniscectomy, FIG. 7E) of the same substance?
Answer: Its value is “significantly accelerated”.

Question: And the “vascular invasion in the regenerated region” value ([2]; intra-articular on day 7, 10 days after resection, FIG. 7A)?
Answer: The value was “almost completely suppressed”.

Question: And the “osteoinduction in regenerated tissues” value ([2]; regenerated tissues administered with activin)?
Answer: Its value is “no osteoinduction was observed”.

Question: And the expression of proteoglycans [3]?
Answer: Its expression of proteoglycans is “promotes the expression of proteoglycans”.
